This passage reports Herbicidal activity and pest or weed control results from patent US10023590B2, “Substituted pyridine compounds having herbicidal activity” (BASF SE, priority 2014, dated 2018).

Format in all cases: in vivo
Series [1] deals with Kochia scoparia. Briefly: Greenhouse post-emergence herbicidal activity, KCHSC. The conditions noted are these: scale 0 to 100. An excerpt:
(§1) The culture containers used were plastic flowerpots containing loamy sand with approximately 3.0% of humus as the substrate. The seeds of the test plants were sown separately for each species.
(§2) For the post-emergence treatment, the test plants were first grown to a height of 3 to 15 cm, depending on the plant habit, and only then treated with the active ingredients which had been suspended or emulsified in water. For this purpose, the test plants were either sown directly and grown in the same containers, or they were first grown separately as seedlings and transplanted into the test containers a few days prior to treatment.
(§3) Depending on the species, the plants were kept at 10-25° C. or 20-35° C., respectively.
(§4) The test period extended over 2 to 4 weeks. During this time, the plants were tended, and their response to the individual treatments was evaluated.
(§5) Evaluation was carried out using a scale from 0 to 100. 100 means no emergence of the plants, or complete destruction of at least the aerial moieties, and 0 means no damage, or normal course of growth. A good herbicidal activity is given at values of at least 70 and a very good herbicidal activity is given at values of at least 85.

For series [2], the system named is Amaranthus retroflexus. In words: Greenhouse post-emergence herbicidal activity, AMARE. The conditions noted are these: AMARE; for pest or weed control at 2000 g/ha: 2 kg/ha, scale 0 to 100, read-out: Herbicidal activity. An outline of the steps:
(§6)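 Post-emergence spray, water suspension/emulsion, on 3-15 cm plants in loamy sand with ~3.0% humus. 10-25° C. or 20-35° C. per species; 2-4 wk. Visual score 0-100, 100 = complete kill.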

The test system of series [3] is Digitaria sanguinalis. In words: Greenhouse post-emergence herbicidal activity, DIGSA. The conditions noted are these: scale 0 to 100.
Excerpt: as §1, §2, §3, §4, §5

Series [4] deals with Setaria faberi. In words: Greenhouse post-emergence herbicidal activity, SETFA. The conditions noted are these: 2 kg/ha, scale 0 to 100.
Excerpt: as §1, §2, §3, §4, §5

Series [5] concerns Oryza sativa. In words: Greenhouse post-emergence herbicidal activity on crop ORYSA (rice). An outline of the steps:
as §6

Series [6] concerns Cirsium arvense. Briefly: Greenhouse post-emergence herbicidal activity, CIRAR. The conditions noted are these: CIRAR; for pest or weed control at 125 g/ha: 0.125 kg/ha.
Excerpt: as §1, §2, §3, §4, §5

Series [7] concerns Zea mays. Briefly: Greenhouse post-emergence herbicidal activity on crop ZEAMX (corn, maize). Further details: key: 0 = no damage/normal growth, 100 = no emergence or complete destruction. An outline of the steps:
as §6

The subject of series [8] is Echinocloa crus-galli. In words: Greenhouse post-emergence herbicidal activity, ECHCG. The conditions noted are these: Echinochloa crus-galli, ECHCG; for pest or weed control at 2000 g/ha: 2 kg/ha, scale 0 to 100, read-out: Herbicidal activity. A digest of the protocol: as §6
The subject of series [9] is Erigeron canadensis. In words: Greenhouse post-emergence herbicidal activity, ERICA.
Excerpt: as §1, §2, §3, §4, §5

The test system of series [10] is Abutilon theophrasti. In words: Greenhouse post-emergence herbicidal activity, ABUTH. The conditions noted are these: ABUTH.
Excerpt: as §1, §2, §3, §4, §5

For series [11], the system named is Polygonum persicaria. In words: Greenhouse post-emergence herbicidal activity, POLPE. The conditions noted are these: 0.063 kg/ha, scale 0 to 100.
Excerpt: as §1, §2, §3, §4, §5

The test system of series [12] is Stellaria media. Briefly: Greenhouse post-emergence herbicidal activity, STEME. The conditions noted are these: scale 0 to 100.
Excerpt: as §1, §2, §3, §4, §5

The subject of series [13] is Chenopodium album. In words: Greenhouse post-emergence herbicidal activity, CHEAL. The conditions noted are these: scale 0 to 100; for pest or weed control at 31 g/ha: 0.031 kg/ha; for pest or weed control at 63 g/ha: 0.063 kg/ha; for pest or weed control at 125 g/ha: 0.125 kg/ha; for pest or weed control at 250 g/ha: 0.25 kg/ha. A digest of the protocol:
as §6

Series [14] has as its system Ambrosia artemisiifolia. Briefly: Greenhouse post-emergence herbicidal activity, AMBEL. The conditions noted are these: scale 0 to 100.
Excerpt: as §1, §2, §3, §4, §5

For series [15], the system named is Veronica arvensis. Briefly: Greenhouse post-emergence herbicidal activity, VERAR. The conditions noted are these: scale 0 to 100.
Excerpt: as §1, §2, §3, §4, §5

The subject of series [16] is Ipomoea hederacea. In words: Greenhouse post-emergence herbicidal activity, IPOHE. The conditions noted are these: 0.031 kg/ha, scale 0 to 100.
Excerpt: as §1, §2, §3, §4, §5

Series [17] concerns Setaria viridis. Briefly: Greenhouse post-emergence herbicidal activity, SETVI. The conditions noted are these: 2 kg/ha, scale 0 to 100.
Excerpt: as §1, §2, §3, §4, §5

[18] abbreviates: ORYSA (rice, crop), 0.031 kg/ha, scale 0 to 100.
[19] abbreviates: ORYSA (rice, crop), 0.063 kg/ha, scale 0 to 100.
[20] abbreviates: ZEAMX (corn, crop), 0.031 kg/ha, scale 0 to 100.
[21] abbreviates: ZEAMX (corn, crop), 0.063 kg/ha, scale 0 to 100.
Setting [22] is: ZEAMX (corn, crop), 0.125 kg/ha, scale 0 to 100.
Setting [23] is: ORYSA (rice, crop), 0.125 kg/ha, scale 0 to 100.
The mark [24] stands for this setting: ORYSA (rice, crop), 0.25 kg/ha, scale 0 to 100.

Each structure is given as a SMILES string.

In the case of `CS(=O)(=O)Nc1ccc(Cl)c(C2=C(O)c3ncccc3CS2(=O)=O)c1Cl` [I-5, N-[2,4-dichloro-3-(8-hydroxy-6,6-dioxo-5H-thiopyrano[4,3-b]pyridin-7-yl)phenyl]methanesulfonamide], the Herbicidal activity in [1] (0.031 kg/ha) is 90; in series [1] (0.063 kg/ha), 95; in [3] (0.063 kg/ha), 90; in series [3] (0.125 kg/ha), 95; in [4], 100; in series [5] (setting [18]), 25. The Herbicidal activity in [5] (setting [19]) is listed as 35; in [7] (setting [20]) it was 0; in [7] (setting [21]), 0; in [7] (setting [22]) it was 0. The pest or weed control at 31 g/ha in [2] (0.031 kg/ha, scale 0 to 100) worked out at 75%; in series [6] (0.031 kg/ha, scale 0 to 100), 75%. The compound further yielded a pest or weed control at 63 g/ha in series [2] (0.063 kg/ha, scale 0 to 100) of 95%. The pest or weed control at 125 g/ha in [2] (0.125 kg/ha, scale 0 to 100) was 95%; in series [6] (scale 0 to 100), 90%. Besides, the pest or weed control at 2000 g/ha in [2] was 98%.
On to `CN(c1c(Cl)ccc(C2=C(O)c3ncccc3C(C)(C)S2(=O)=O)c1C(F)(F)F)S(C)(=O)=O` [I-32, N-[6-chloro-3-(8-hydroxy-5,5-dimethyl-6,6-dioxo-thiopyrano[4,3-b]pyridin-7-yl)-2-(trifluoromethyl)phenyl]-N-methyl-methanesulfonamide], for which the pest or weed control at 31 g/ha in series [2] (application rate 0.031 kg/ha) amounted to 98%; in series [8] (application rate 0.031 kg/ha), 90%; in [10] (application rate 0.031 kg/ha) it was 95%. In addition, the pest or weed control at 63 g/ha in [2] (application rate 0.063 kg/ha) turned out to be 98%; in series [8] (application rate 0.063 kg/ha), 98%; in series [10] (application rate 0.063 kg/ha), 90%. For the same compound, the pest or weed control at 125 g/ha is 98% in [2] (application rate 0.125 kg/ha), 95% in series [8] (application rate 0.125 kg/ha) and 95% in [10] (application rate 0.125 kg/ha). Moreover, the pest or weed control at 250 g/ha in series [2] (application rate 0.25 kg/ha) and in series [10] (application rate 0.25 kg/ha) was 98% in each case. Further, the Herbicidal activity in series [9] (application rate 0.25 kg/ha) was found to be 100; in [5] (crop ORYSA (rice), application rate 0.25 kg/ha) it was 30; in [7] (crop ZEAMX (corn, maize), application rate 0.031 kg/ha), 5; in [7] (crop ZEAMX (corn, maize), application rate 0.063 kg/ha), 5; in series [7] (crop ZEAMX (corn, maize), application rate 0.125 kg/ha), 15.
Regarding `CN(c1ccc(Cl)c(C2=C(O)c3ncccc3C(C)(C)S2(=O)=O)c1Cl)S(C)(=O)=O` [I-7, N-[2,4-dichloro-3-(8-hydroxy-5,5-dimethyl-6,6-dioxo-thiopyrano[4,3-b]pyridin-7-yl)phenyl]-N-methyl-methanesulfonamide], the pest or weed control at 125 g/ha in series [2] (0.125 kg/ha, scale 0 to 100) is 90%; in series [13], 98%. Also, the Herbicidal activity is 80 in series [11]; 100 in series [12] (0.063 kg/ha); 100 in series [12] (0.125 kg/ha); 100 in series [12] (0.25 kg/ha); 0 in series [5] (setting [18]); 0 in [5] (setting [19]). Also, the Herbicidal activity is 10 in series [5] (setting [23]); 15 in series [5] (setting [24]); 0 in series [7] (setting [20]); 0 in series [7] (setting [21]); 20 in series [7] (setting [22]). Also, the pest or weed control at 250 g/ha in series [10] (0.25 kg/ha, scale 0 to 100) was 100%; in [13], 100%. In addition, the pest or weed control at 31 g/ha in series [13] turned out to be 95%. The compound further yielded a pest or weed control at 63 g/ha in [13] of 85%.
On to `CN(c1c(Cl)ccc(C2=C(O)c3ncccc3C(C)(C)S2(=O)=O)c1Cl)S(=O)(=O)CC1CC1` [I-21, 1-cyclopropyl-N-[2,6-dichloro-3-(8-hydroxy-5,5-dimethyl-6,6-dioxo-thiopyrano[4,3-b]pyridin-7-yl)phenyl]-N-methyl-methanesulfonamide], for which the pest or weed control at 31 g/ha was found to be 98% in series [2] (0.031 kg/ha, scale 0 to 100); 98% in series [8] (0.031 kg/ha, scale 0 to 100); 95% in series [13]. Further, the pest or weed control at 63 g/ha stood at 98% in series [2] (0.063 kg/ha, scale 0 to 100) and 98% in series [13]. Besides, the pest or weed control at 125 g/ha in series [2] (0.125 kg/ha, scale 0 to 100) was 100%; in series [6] (scale 0 to 100), 100%. Also, the pest or weed control at 2000 g/ha in series [2] is 100%; in [8] it was 100%; in [10] (2 kg/ha, scale 0 to 100, read-out: Herbicidal activity) it was 100%. Besides, the Herbicidal activity in series [9] (0.063 kg/ha, scale 0 to 100) is given as 100; in series [9] (0.125 kg/ha, scale 0 to 100), 100; in series [5] (setting [18]), 0; in series [5] (setting [19]), 30; in [5] (setting [23]) it was 45.
With `CN(c1cccc(C2=C(OC(=O)C(C)(C)C)c3ncccc3C(C)(C)S2(=O)=O)c1Cl)S(C)(=O)=O` [I-16, [7-[2-chloro-3-[methyl(methylsulfonyl)amino]phenyl]-5,5-dimethyl-6,6-dioxo-thiopyrano[4,3-b]pyridin-8-yl] 2,2-dimethylpropanoate], the pest or weed control at 31 g/ha in [2] (0.031 kg/ha, scale 0 to 100) amounted to 75%; in series [13], 95%. In addition, the pest or weed control at 125 g/ha in series [2] (0.125 kg/ha, scale 0 to 100) was 90%; in series [13] it was 98%. Further, the Herbicidal activity in series [14] (0.063 kg/ha) was 100; in [14] (0.125 kg/ha), 100; in series [14] (0.25 kg/ha), 100; in series [15] (0.25 kg/ha) it was 100; in [5] (setting [18]), 0; in series [5] (setting [19]), 0. The Herbicidal activity in series [5] (setting [23]) amounted to 0; in series [5] (setting [24]), 0; in series [16], 70; in series [7] (setting [20]), 0; in series [7] (setting [21]), 0; in series [7] (setting [22]) it was 0. The pest or weed control at 63 g/ha came to 98% in series [13] and 85% in series [6] (0.063 kg/ha, scale 0 to 100, read-out: Herbicidal activity). Moreover, in series [13], the pest or weed control at 250 g/ha stood at 100%.
For `Cc1c(C2=C(O)c3ncccc3C(C)(C)S2(=O)=O)cccc1N(C)S(C)(=O)=O` [I-14, N-[3-(8-hydroxy-5,5-dimethyl-6,6-dioxo-thiopyrano[4,3-b]pyridin-7-yl)-2-methyl-phenyl]-N-methyl-methanesulfonamide], the Herbicidal activity in series [17] came out at 100; in series [1] (0.031 kg/ha), 95; in series [1] (0.063 kg/ha), 100; in series [14] (0.063 kg/ha), 100; in series [14] (0.125 kg/ha) it was 100; in [12] (0.125 kg/ha), 100. In addition, the Herbicidal activity in series [15] (0.031 kg/ha) turned out to be 100; in [15] (0.063 kg/ha) it was 100; in series [5] (setting [18]) it was 0; in series [5] (setting [19]), 0; in series [5] (setting [23]), 10; in [7] (setting [20]), 15. Moreover, the Herbicidal activity in series [7] (setting [21]) was determined as 20; in [7] (setting [22]), 35. Moreover, the results for the pest or weed control at 2000 g/ha in series [2] and in series [8] were 100% and 98%, respectively. The same compound came in with a pest or weed control at 31 g/ha in series [13] of 98%. In series [13], this compound displayed a pest or weed control at 125 g/ha of 100%.
